Values of other authors as cited in patent EP3021668B1, “EMULSIFIABLE CONCENTRATE COMPRISING PESTICIDE, ALKYL LACTATE, FATTY AMIDE AND ACETOPHENONE” (BASF SE, priority 2013, dated 2015).

Legend:
[1] = at 20 °C
[2] = pure solvents; according to the Annex III of European Union Directive 67/548/EEC

Compound | soluble in water [1] | eye toxicity classification [2]
Cn1cc(C(=O)Nc2ccccc2-c2cc(F)c(F)c(F)c2)c(C(F)F)n1 [fluxapyroxad] | about 4 mg/l | 
COC(=O)N(OC)c1ccccc1COc1ccn(-c2ccc(Cl)cc2)n1 [pyraclostrobin] | about 2 mg/l | 
CC(=O)c1ccccc1 [acetophenone] |  | R36 "Irritating to eyes"
CCCC[C@H](CC)COC(=O)C(C)O (stereo partly drawn) [(S)-2-ethylhexyl lactate] |  | R36 "Irritating to eyes"
